“Also recorded” adds a separate entry of the source.
Experiments:
[1] = tested on: Male C57BL/6 mice fed high fat diet; assay: High Fat Diet (HFD) mouse model of non-alcoholic fatty liver disease; format: in vivo; details: five times per week for six weeks
Excerpt: Male C57BL/6 mice (8 weeks) were fed either normal or high fat diet (HFD) (60% TD06414, Envigo) and given water ad libitum. […] At 20 weeks, mice were sacrificed and serum plasma was collected for measurement of various biochemical parameters, including serum transaminases.

mice fed a high-fat diet = details: cited from earlier work
T2DM patients = details: cited from earlier work
ZDF rat = assay: oGTT in ZDF rat; format: in vivo; details: 3 mg/kg
dog = details: 7-day
Sprague-Dawley rat = assay: oral glucose tolerance test (oGTT) in Sprague-Dawley rat; format: in vivo
Description: (§1) Animals were grouped in regular cages (rats 2/cage, mice 4/cage) with bedding under normal light conditions (lights on 6:30 am-6:30 pm). They were given ad libitum access to food and water. Animals were allowed to acclimate to the facility for several days before handling.
Rat: Animals are fasted 3-16 h.
The oral glucose tolerance test (OGTT) was executed as follows: At time minus 30 min, blood was collected via a tail nick and a glucose test performed with a hand-held glucometer, and compound was then administered. At time 0, blood was again collected for glucose reading and then a bolus of glucose (3 g/kg p.o., 6 mL/kg) administered. Blood glucose levels were further tested at 30, 60, and 120 min post glucose administration. During the entire oGTT, a total volume of approximately 8 drops of blood was collected. Rats were used twice with a one week lapse between experiments.

Cynomolgus monkey = assay: oGTT in normal cynomolgus monkey; format: in vivo; details: 3 mg/kg
[2] = oral pharmacokinetics in monkey; format: in vivo; details: Male cynomolgus monkey, 10 mg/kg, 100% PEG400
[3] = oral pharmacokinetics in mouse; format: in vivo, Male C57B1 mouse
[4] = stability in human liver microsomes; format: in vitro ADME
ob/ob Mice = assay: oGTT in ob/ob mice; format: in vivo, mouse; details: 3 mg/kg
[5] = stability in rat liver microsomes; format: in vitro ADME
[6] = oral pharmacokinetics in dog; format: in vivo; details: Male beagle dog, 7.85 mg/kg, 100% PEG400
rat = details: 14-day
Caco-2 monolayers = assay: permeability across Caco-2 monolayers; format: in vitro ADME
male C57bl/6j mice = assay: oral glucose tolerance test (oGTT) in normal lean mice; format: in vivo, mouse; details: 1 mg/kg and 10 mg/kg p.o.
Description: as §1
Mouse: Following 2 handling sessions, animals were fasted for 3-16 h.
The oral glucose tolerance test (oGTT) was executed as follows: Compound was administered 0-30 min prior to first blood sample. At time 0, a tail nick and glucose test was performed with a hand-held glucometer, then a bolus of glucose ([…], p.o.) was administered. Glucose was again tested at 20, 40, 60, and 120 minutes post glucose administration. During the entire oGTT, a total volume of approximately 10 drops of blood was collected.

anesthetized Guinea Pig = assay: cardiovascular effects in the anesthetized Guinea Pig; format: in vivo; details: cumulative doses up to 5 mg/kg i.v., compared to vehicle controls
[7] = oral pharmacokinetics in rat; format: in vivo; details: Male Sprague-Dawley rat, 10 mg/kg, 40% HPβCD
hERG channel = hERG channel (Homo sapiens, UniProt Q12809); assay: hERG patch clamp study; format: cell-based
hERG channel, sequence (Q12809 whole entry): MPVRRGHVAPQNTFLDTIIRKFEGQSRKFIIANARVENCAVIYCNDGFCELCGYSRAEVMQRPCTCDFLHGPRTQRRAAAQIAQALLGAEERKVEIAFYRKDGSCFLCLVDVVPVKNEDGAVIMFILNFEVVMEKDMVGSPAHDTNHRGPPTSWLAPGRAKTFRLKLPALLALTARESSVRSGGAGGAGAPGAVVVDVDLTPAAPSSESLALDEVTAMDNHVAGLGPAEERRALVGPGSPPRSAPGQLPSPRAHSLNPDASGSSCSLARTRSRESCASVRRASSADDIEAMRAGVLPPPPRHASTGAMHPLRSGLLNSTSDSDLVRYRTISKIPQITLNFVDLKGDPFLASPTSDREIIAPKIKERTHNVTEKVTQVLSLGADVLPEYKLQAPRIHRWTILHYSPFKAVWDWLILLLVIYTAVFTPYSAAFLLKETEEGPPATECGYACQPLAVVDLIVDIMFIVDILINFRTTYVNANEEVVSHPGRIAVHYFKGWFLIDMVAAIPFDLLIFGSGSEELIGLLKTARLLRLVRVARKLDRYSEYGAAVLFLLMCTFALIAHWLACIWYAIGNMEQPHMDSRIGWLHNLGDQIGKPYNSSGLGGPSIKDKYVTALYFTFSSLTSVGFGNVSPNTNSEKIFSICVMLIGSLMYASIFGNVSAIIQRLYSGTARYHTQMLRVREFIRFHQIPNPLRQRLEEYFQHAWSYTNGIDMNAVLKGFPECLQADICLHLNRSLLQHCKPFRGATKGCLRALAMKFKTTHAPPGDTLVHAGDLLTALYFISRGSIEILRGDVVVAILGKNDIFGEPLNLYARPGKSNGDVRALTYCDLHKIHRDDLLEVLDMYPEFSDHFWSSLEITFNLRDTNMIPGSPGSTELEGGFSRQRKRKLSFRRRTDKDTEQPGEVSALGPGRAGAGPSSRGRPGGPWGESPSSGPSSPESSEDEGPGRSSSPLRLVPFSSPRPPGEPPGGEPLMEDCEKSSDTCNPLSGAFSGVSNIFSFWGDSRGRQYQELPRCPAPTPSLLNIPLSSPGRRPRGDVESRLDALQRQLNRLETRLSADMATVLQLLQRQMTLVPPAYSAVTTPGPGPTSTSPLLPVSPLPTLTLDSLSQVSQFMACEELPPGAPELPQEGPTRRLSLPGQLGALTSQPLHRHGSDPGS

healthy male volunteers = details: cited from earlier work
[8] = oral administration, mice fed a high-fat diet
[9] = 100 or 500 mg single-dose or 500 mg once daily for 14 days
[10] = multiple dosing, compared to baseline
[11] = Sprague-Dawley rat, 3-30 mg/kg PO
[12] = Male C57B1 mouse, 10 mg/kg, 40% HPβCD
[13] = healthy male volunteers, 2.5-800 mg
[14] = oral single-dose, compared with placebo

CCc1cnc(N2CCC(c3nc(COc4ccc(-n5cnnn5)cc4)cs3)CC2)nc1 [MBX-2982]
increases in serum ALT caused by high fat diet ([1]; HFD mice, 10 mg/kg/day): blocked by treatment with Compound 1, but not MBX-2982 | hepatic antilipogenesis effects in GPR119 KO mice (mice fed a high-fat diet; GPR119 KO mice): abolished | expression levels of SREBP-1 and lipogenesis-related genes (mice fed a high-fat diet; [8]): potently inhibited | hepatic lipid accumulation (mice fed a high-fat diet; [8]): potently inhibited

COc1c(Nc2ccc(S(C)(=O)=O)nc2C)ncnc1OC1CCN(C(=O)OC(C)C)CC1 [Compound 1, 4-[6-(6-Methanesulfonyl-2-methyl-pyridin-3-ylamino)-5-methoxy-pyrimidin-4-yloxy]-piperidine-1-carboxylic acid isopropyl ester]
increases in serum ALT caused by high fat diet ([1]; HFD mice, 3, 10 and 30 mg/kg/day): blocked | hypoglycemia (T2DM patients; [9]): not associated with hypoglycemia | tolerability (T2DM patients; [9]): well tolerated | plasma systemic exposure versus dose (T2DM patients): increased with increased dose | post-meal gastric insulinotropic peptide concentration (T2DM patients; [10]): increased | post-meal total glucagon-like peptide 1 concentration (T2DM patients; [10]): increased | time to attain steady-state (T2DM patients; multiple-dose administration): approximately 8 days | plasma systemic exposure after multiple-dose administration (T2DM patients; multiple-dose versus single-dose): approximately two-fold greater | glucose excursion during an oral glucose tolerance test (T2DM patients; single-dose, compared with placebo): decreased | Compd exposure upon oGTT (ZDF rat): 1592 ± 128 ng/mL | Blood glucose AUC (% of vehicle group) (ZDF rat; oGTT): 72.8 ± 6.3 % of vehicle group | preliminary safety findings (dog): no obvious liabilities | Compd exposure upon oGTT (Sprague-Dawley rat; SD rats, 3 mg/kg): 482 ± 116 ng/mL | Blood glucose AUC (% of vehicle group) (Sprague-Dawley rat; SD rats, 3 mg/kg, oGTT): 85.1 ± 1.9 % of vehicle group | AUCglu during oGTT (Sprague-Dawley rat; [11]): markedly reduced; also recorded: significant main effect | glucose handling (Sprague-Dawley rat; [11]): significantly improved | Compd exposure upon oGTT (Cynomolgus monkey): 112 ± 16.9 ng/mL | Blood glucose AUC (% of vehicle group) (Cynomolgus monkey; oGTT): 82.8 ± 1.7 % of vehicle group | % F [2]: 68.8% | AUCinf [2]: 64180 ng·h/mL | Cmax [2]: 4803 ng/mL | tmax [2]: 6 h | AUCinf [3, 12]: 319953 ng·h/mL | Cmax [3, 12]: 25833 ng/mL | tmax [3, 12]: 2 h | exposure after oral dosing ([3]; mouse): high | t1/2 in liver microsomes [4]: > 1 h | Blood glucose AUC (% of vehicle group) (ob/ob Mice): 78.4 ± 5.1 % of vehicle group | t1/2 in liver microsomes [5]: > 1 h | % F [6]: 22.1% | AUCinf [6]: 43743 ng·h/mL | Cmax [6]: 1983 ng/mL | tmax [6]: 8 h | preliminary safety findings (rat): no obvious liabilities | permeability across Caco-2 monolayers, A to B (Caco-2 monolayers; A to B): 26 ×10⁻⁶ cm/s | permeability across Caco-2 monolayers, B to A (Caco-2 monolayers; B to A): 15 ×10⁻⁶ cm/s | AUCglu during oGTT (male C57bl/6j mice): significant reduction; also recorded: significant main effect | effects on mean arterial blood pressure (MAP), heart rate (HR) or electrocardiogram (ECG) (anesthetized Guinea Pig): did not produce any dose-related, statistically significant effects | % F [7]: 72% | AUCinf [7]: 12471 ng·h/mL | Cmax [7]: 1390 ng/mL | tmax [7]: 1 h | IC50 (hERG channel): 13 ± 0.2 µM | hypoglycemia (healthy male volunteers; [13]): not associated with hypoglycemia | systemic exposure in plasma versus dose (healthy male volunteers; [13]): increased in proportion to the dose | tolerability (healthy male volunteers; [13]): well tolerated | influence of food on systemic exposure in plasma (healthy male volunteers; healthy male volunteers, coadministration of food): not influenced by coadministration of food | terminal elimination half-life (healthy male volunteers; healthy male volunteers, oral suspension formulation): ~13 h | glucose excursion (healthy male volunteers; [14]): did not significantly decrease | insulin secretion (healthy male volunteers; [14]): did not significantly decrease glucose excursion or increase insulin secretion | postmeal plasma glucagon-like peptide 1 (GLP-1) concentration (healthy male volunteers; [14]): increased | postmeal plasma glucose-dependent insulinotropic peptide (GIP) concentration (healthy male volunteers; [14]): increased | postmeal plasma peptide YY (PYY) concentration (healthy male volunteers; [14]): increased
